Test results: patent US8236811B2, “Therapeutic use for treating of leukemia” (Sanofi, priority 2006, dated 2012)

What was measured:
Assay type in all cases: in vivo, Scid CB-17 mice
Kasumi1 tumours (AML) = test: Antitumor activity in mice bearing Kasumi1 tumours (AML); conditions: days 25-31, 33, 34, P 178 mg
Source text: (§1) Scid CB-17 mice (supplied by Charles River, Lyon, France) are used. At the time of the randomization, the animals have an average weight of 20-22 g and are aged from 6 to 9 weeks.
(§2) The day before the first administration of a compound, the animals bearing tumors are classified into several groups. Only animals bearing two tumors which are palpable or of determined weight are selected and distributed at random into the treated groups and control groups. Each group is made up of 5 to 10 mice. At the start of the study, each cage is labeled with a card indicating the day of implantation of the tumour, the type of tumour, the compound tested and the mode of administration.
(§3) The implantation of the tumors is effected as follows: after removal of the tumour from the donor mouse, the tumour is cut up into fragments 2 to 3 mm in diameter, placed in a saline phosphate buffer, and implanted bilaterally with an adapted trocar.
(§4) The volume of the tumors and its conversion into weight is estimated according to the formula: weight: (in mg)=(a×b^2)/2, where a and b are respectively the length and the width of the tumour (mm). The tumors are measured twice a week with calipers. In the following tables, P indicates the weight of the tumors at the start of treatment.
(§5) T is the median time in days for reaching a defined value (e.g. 1000 mg) in the treated group and C is the median time in days for reaching this same value in the control group. A value of log10 of the cells killed>0.7 is indicative of antitumor activity of the molecule. […] The median weight of the tumors of each treated group is then determined.
(§6) IV is understood to mean administration by the intravenous route.

K562 tumours (CML) = test: Antitumor activity in mice bearing K562 tumours (CML); conditions: 25 mg/kg/injection IV/IP, days 4-11/12-25, total dose 550 mg/kg
Source text: as §1, §2, §3, §4
(§7) Two parameters for estimation of antitumor activity are used: log10 of the cells killed (Log cell kill) and T/C. • Calculation of log10 of the cells killed=(T−C)/3.32×Td, where (T−C) is the delay in tumour growth and Td the volume (and weight) doubling time of the tumour (expressed in days). […] A value of log10 of the cells killed >2.8 is indicative of a very high antitumor activity of the molecule (J Liang et al, Invest New Drugs 2005; 23(3):213-24). • Calculation of T/C: the treated groups and the control groups are evaluated when the tumors of the control group reach approximately 1000 mg (median value of the group). The median weight of the tumors of each treated group is then determined. […]

EOL-1 tumours (AML) = test: Antitumor activity in mice bearing EOL-1 tumours (AML); conditions: days 8-10, 12-17, 19, total dose 300 mg/kg, P 133-146 mg
Source text: as §1
as §2, with “administration. […]” for “administration.”
(§8) The volume of the tumors and its conversion into weight is estimated according to the formula: weight: (in mg)=(a×b^2)/2, where a and b are respectively the length and the width of the tumour (mm). The tumors are measured twice a week with calipers. […]
T is the median time in days for reaching a defined value (e.g. 1000 mg) in the treated group and C is the median time in days for reaching this same value in the control group. […] The median weight of the tumors of each treated group is then determined.

KG1 tumours (AML) = test: Antitumor activity in mice bearing KG1 tumours (AML)
Source text: as §1, §2, §3, §4
Two parameters for estimation of antitumor activity are used: log10 of the cells killed (Log cell kill) and T/C. • Calculation of log10 of the cells killed=(T−C)/3.32×Td, where (T−C) is the delay in tumour growth and Td the volume (and weight) doubling time of the tumour (expressed in days). T is the median time in days for reaching a defined value (e.g. 1000 mg) in the treated group and C is the median time in days for reaching this same value in the control group. A value of log10 of the cells killed>0.7 is indicative of antitumor activity of the molecule. A value of log10 of the cells killed >2.8 is indicative of a very high antitumor activity of the molecule (J Liang et al, Invest New Drugs 2005; 23(3):213-24). • Calculation of T/C: the treated groups and the control groups are evaluated when the tumors of the control group reach approximately 1000 mg (median value of the group). The median weight of the tumors of each treated group is then determined. The T/C value ((weight of the tumors of the treated groups/weight of the tumors of the control groups)×100) in percent is an indication of the antitumor efficacy: a T/C value less than or equal to 42% is indicative of anti-tumour activity according to the American National Cancer Institute (NCI). A T/C value less than 10% is representative of very high anti-tumour activity. • The number of mice no longer displaying tumors a long time after the last administration (TFS=tumour-free survival), and considered as cured, can also constitute a parameter of activity of the molecule. • Evaluation of the toxicity of the compound tested: a weight loss greater than or equal to 20% or the appearance of any lethality in connection with the compound is considered as an excessively toxic treatment. As examples, the results obtained with the compound N-[2-(2,1,3-benzothiadiazol-5-ylamino)-6-(2,6-dichlorophenyl)pyrido[2,3-d]pyrimidin-7-yl]-N′-(1,1-dimethyl-ethyl)-urea are given in the following Tables 1 to 7.
as §6
The cell line KG-1 (AML) is described by Koeffler et al., Science 200: 1153-1154 (1978), and supplied by DSMZ ACC No. 14.

CMLT1 tumours (CML) = test: Antitumor activity in mice bearing CMLT1 tumours (CML); conditions: 20 mg/kg/injection IV/IP, days 3-7/10-14, 17-21, total dose 300 mg/kg
Source text: as §1, §2, §3, §4, §7

KG1a tumors (AML) = test: Antitumor activity in mice bearing KG1a tumors (AML)
Source text: as §1, §2, §3, §4, §5
IV/IP is understood to mean administration by the intravenous route followed by an intraperitoneal route; here the transition is effected between day 15 and day 16. IV/oral is understood to mean administration by the intravenous route followed by an oral route; here the transition is effected between day 30 and day 31. […] On day 31, the compound is administered by the oral route until day 44.

CTV1 tumours (AML) = test: Antitumor activity in mice bearing CTV1 tumours (AML); conditions: 25 mg/kg/injection IV/IP, days 17-23, 25-26/28-32, total dose 350 mg/kg, P 100 mg
Source text: as §1
as §2, with “administration. […]” for “administration.”
as §8
Two parameters for estimation of antitumor activity are used: log10 of the cells killed (Log cell kill) and T/C. • Calculation of log10 of the cells killed=(T−C)/3.32×Td, where (T−C) is the delay in tumour growth and Td the volume (and weight) doubling time of the tumour (expressed in days). […] The median weight of the tumors of each treated group is then determined. […]

[1] = 17 mg/kg/injection IV, days 19-38, total dose 255 mg/kg, P 127-130 mg

`CC(C)(C)NC(=O)Nc1nc2nc(Nc3ccc4nsnc4c3)ncc2cc1-c1c(Cl)cccc1Cl` [N-[2-(2,1,3-benzothiadiazol-5-ylamino)-6-(2,6-dichlorophenyl)pyrido[2,3-d]pyrimidin-7-yl]-N′-(1,1-dimethylethyl)-urea] was tested, and the “T/C at 28 days” value (Kasumi1 tumours (AML); 15 x 2 mg/kg (two administrations per treatment day) IV, total dose 255 mg/kg, PEG400 22% Solutol 5% G5 73%) was 20%, the Log10 cells killed (Kasumi1 tumours (AML); 15 x 2 mg/kg IV, total dose 255 mg/kg) was 3 and the “T/C at 28 days” value (Kasumi1 tumours (AML); 40 x 2 mg/kg (two administrations per treatment day) oral, total dose 680 mg/kg, Labrasol 21% Solutol 5% HCl 0.001N 74%) was 17.5%. For the same compound, the Log10 cells killed (Kasumi1 tumours (AML); 40 x 2 mg/kg oral, total dose 680 mg/kg) was 2.4, the Log10 cells killed (K562 tumours (CML); P 63-80 mg) was 4.2 and the “T/C at 28 days” value (K562 tumours (CML); P 63-80 mg, DMSO 5% Tween80 10% H2O 85%) was 0%. For the same compound, the “TFS (tumour-free survival)” value (K562 tumours (CML); on day 130) was “(43%”, the “T/C at 14 days” value (EOL-1 tumours (AML); 15 x 2 mg/kg (2 administrations per treatment day) IP, PEG400 22% Solutol 5% G5 73%) was 5.7% and the Log10 cells killed (EOL-1 tumours (AML); 15 x 2 mg/kg IP) was 3.1. For the same compound, the “T/C at 28 days” value (KG1 tumours (AML); 17 mg/kg/injection IV, days 19-28, 30, 32, 34, 36, 38, total dose 255 mg/kg, P 127-130 mg, DMSO 5% Tween80 10% H2O 85%) was 0%, the Log10 cells killed (KG1 tumours (AML); [1]) was greater than 6 and the “TFS (tumour-free survival)” value (KG1 tumours (AML); [1]) was “(100%)”. For the same compound, the “T/C at 28 days” value (KG1 tumours (AML); 40 x 2 mg/kg (2 administrations per treatment day) oral, days 18-24, 26, 28, 30, 32, 34, 36, 38, 40, total dose 1200 mg/kg, P 130-132 mg, Labrasol 21% Solutol 5% HCl 0.001N 74%) was 0%, the Log10 cells killed (KG1 tumours (AML); 40 x 2 mg/kg oral, days 18-40, total dose 1200 mg/kg, P 130-132 mg) was 4.3 and the Log10 cells killed (CMLT1 tumours (CML); P palpable ~30 mg) was 1.5. The “T/C at 22 days” value (CMLT1 tumours (CML); P palpable ~30 mg, DMSO 5% Tween80 10% H2O 85%) was 1%, the “TFS (tumour-free survival)” value (CMLT1 tumours (CML); on day 42) was “(50%” and the “T/C at 22 days” value (KG1a tumors (AML); 17 mg/kg/injection IV/IP, days 5-13, 15/16, 18-20, 22, 24-26, 29, 31, total dose 340 mg/kg, P 91-98 mg, DMSO 5% Tween80 10% H2O 85%) was 0%. For the same compound, the Log10 cells killed (KG1a tumors (AML); 17 mg/kg/injection IV/IP, days 5-31, total dose 340 mg/kg, P 91-98 mg, DMSO 5% Tween80 10% H2O 85%) was >>6, the Log10 cells killed (KG1a tumors (AML); 25 mg/kg IV days 22-30 then 40 x 2 mg/kg oral days 31-44, total dose 225/1120 mg/kg, P 1000 mg, DMSO 5% Tween80 10% H2O 85%) was >>6 and the Log10 cells killed (KG1a tumors (AML); 40 x 2 mg/kg (2 administrations per treatment day) oral, days 15-44, total dose 2400 mg/kg, P 147 mg) was 3.0. The “T/C at 22 days” value (KG1a tumors (AML); 40 x 2 mg/kg (2 administrations per treatment day) oral, days 15-44, total dose 2400 mg/kg, P 147 mg, DMSO 5% Tween80 10% H2O 85%) was 14.9%, the “tumour weight at the end of second treatment period (tumors no longer measurable)” value (KG1a tumors (AML); after IV days 22-30 (25 mg/kg) then oral route day 31 until day 44, P 1000 mg) was less than 63 mg and the “TFS (tumour-free survival)” value (KG1a tumors (AML); on day 120, 17 mg/kg/injection IV/IP, days 5-31, total dose 340 mg/kg, P 91-98 mg) was 80% on. The “reduction in the tumour weight” value (KG1a tumors (AML); tumors at very advanced stage (1000 mg), IV route days 22 to 30 at 25 mg/kg) was 80%, the Log10 cells killed (CTV1 tumours (AML)) was 1.7 and the “T/C at 25 days” value (CTV1 tumours (AML); PEG400 22% Solutol 5% G5 73%) was 1.6%.
